The results in this text go back to article PMC8213057, “Targeting ALK2: An Open Science Approach to Developing Therapeutics for the Treatment of Diffuse Intrinsic Pontine Glioma” (Journal of Medicinal Chemistry, 2020).

The target of one assay is CAMK2g (Homo sapiens, UniProt Q13555). Conditions: 1 μM; Run 1, Run 2.
In the next assay the target is T1, GRK3 (Homo sapiens, UniProt P35626).
T1 sequence (P35626 1-688): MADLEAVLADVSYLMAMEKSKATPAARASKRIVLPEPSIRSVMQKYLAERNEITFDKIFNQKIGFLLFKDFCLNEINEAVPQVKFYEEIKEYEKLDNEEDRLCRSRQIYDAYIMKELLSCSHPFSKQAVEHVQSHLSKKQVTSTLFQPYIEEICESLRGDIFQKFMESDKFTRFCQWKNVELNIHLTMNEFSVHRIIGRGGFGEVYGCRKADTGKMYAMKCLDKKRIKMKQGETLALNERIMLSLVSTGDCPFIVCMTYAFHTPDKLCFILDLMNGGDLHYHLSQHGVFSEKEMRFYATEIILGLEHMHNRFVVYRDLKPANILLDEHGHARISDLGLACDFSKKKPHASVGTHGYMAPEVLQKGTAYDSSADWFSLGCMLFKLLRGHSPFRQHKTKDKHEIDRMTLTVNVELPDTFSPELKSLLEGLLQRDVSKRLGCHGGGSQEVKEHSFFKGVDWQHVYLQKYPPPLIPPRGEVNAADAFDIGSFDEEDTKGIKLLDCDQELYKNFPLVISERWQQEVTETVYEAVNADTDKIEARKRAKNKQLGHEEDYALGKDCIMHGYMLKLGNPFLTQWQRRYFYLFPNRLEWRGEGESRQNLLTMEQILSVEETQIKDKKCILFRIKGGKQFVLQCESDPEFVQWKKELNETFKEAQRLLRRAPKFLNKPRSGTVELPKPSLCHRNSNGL
The settings on record: 1 μM; Run 1, Run 2.

The target in another assay is MARK3 (Homo sapiens, UniProt P27448). Put plainly: biochemical. Conditions: read-out: % enzyme activity, 1 μM; Run 1, Run 2.
For a further assay, the target named is PAK5 (Homo sapiens, UniProt Q9P286). Conditions: 1 μM; Run 1, Run 2.
For a further assay, the target named is T2, ALK5/TGFBR1 (Homo sapiens, UniProt P36897).
T2 construct: purchased Reaction Biology Corporation
T2 sequence (P36897 34-503): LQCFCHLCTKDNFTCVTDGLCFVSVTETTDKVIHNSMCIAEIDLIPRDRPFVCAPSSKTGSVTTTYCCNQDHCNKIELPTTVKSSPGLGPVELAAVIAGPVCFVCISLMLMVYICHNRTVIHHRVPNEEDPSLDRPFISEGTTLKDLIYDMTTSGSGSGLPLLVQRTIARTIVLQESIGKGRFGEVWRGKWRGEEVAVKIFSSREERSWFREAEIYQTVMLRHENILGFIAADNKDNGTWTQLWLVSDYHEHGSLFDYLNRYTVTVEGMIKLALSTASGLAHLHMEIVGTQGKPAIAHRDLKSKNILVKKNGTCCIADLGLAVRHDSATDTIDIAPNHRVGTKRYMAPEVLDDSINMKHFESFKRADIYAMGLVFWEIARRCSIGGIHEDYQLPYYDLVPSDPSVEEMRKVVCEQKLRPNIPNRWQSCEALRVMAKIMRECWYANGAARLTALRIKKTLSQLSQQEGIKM
Put plainly: 375-member kinase panel. The class given is biochemical. Conditions: Run 1, Run 2; for % enzyme activity: 1 μM; for remaining activity at 1 µM: read-out: % enzyme activity, 1 μM.

A further assay concerns the target RSK1 (Homo sapiens, UniProt Q15418). The settings on record: 1 μM; Run 1, Run 2.
The target in a further assay is T3, NEK3 (Homo sapiens, UniProt P51956).
T3 sequence (P51956 1-506): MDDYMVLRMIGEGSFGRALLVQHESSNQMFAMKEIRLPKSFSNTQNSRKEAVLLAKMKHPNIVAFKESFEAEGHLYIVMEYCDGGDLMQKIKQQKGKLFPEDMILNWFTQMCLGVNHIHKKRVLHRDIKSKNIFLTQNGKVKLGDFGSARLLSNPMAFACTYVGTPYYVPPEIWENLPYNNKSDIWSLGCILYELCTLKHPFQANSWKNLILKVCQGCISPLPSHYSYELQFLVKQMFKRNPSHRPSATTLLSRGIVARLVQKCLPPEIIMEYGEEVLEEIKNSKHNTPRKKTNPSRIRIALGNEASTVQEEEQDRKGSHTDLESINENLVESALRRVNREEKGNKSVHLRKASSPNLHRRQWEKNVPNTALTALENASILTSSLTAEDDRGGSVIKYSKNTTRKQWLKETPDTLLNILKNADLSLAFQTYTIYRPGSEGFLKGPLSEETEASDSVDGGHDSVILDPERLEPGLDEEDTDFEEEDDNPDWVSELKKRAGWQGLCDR
Put plainly: biochemical. The settings on record: read-out: % enzyme activity, 1 μM; Run 1, Run 2.

For the next assay, the target named is CDK3/cyclin E (Homo sapiens, UniProt Q00526). Put plainly: biochemical. The settings on record: read-out: % enzyme activity, 1 μM; Run 1, Run 2.
In a further assay the target is STK39/STLK3 (Homo sapiens, UniProt Q9UEW8). Put plainly: biochemical. The settings on record: read-out: % enzyme activity, 1 μM; Run 1, Run 2.
A further assay concerns the target ERK5/MAPK7 (Homo sapiens, UniProt Q13164). Put plainly: biochemical. The settings on record: read-out: % enzyme activity, 1 μM; Run 1, Run 2.
The next assay deals with T4, MARK4 (Homo sapiens, UniProt Q96L34).
T4 sequence (Q96L34 1-752): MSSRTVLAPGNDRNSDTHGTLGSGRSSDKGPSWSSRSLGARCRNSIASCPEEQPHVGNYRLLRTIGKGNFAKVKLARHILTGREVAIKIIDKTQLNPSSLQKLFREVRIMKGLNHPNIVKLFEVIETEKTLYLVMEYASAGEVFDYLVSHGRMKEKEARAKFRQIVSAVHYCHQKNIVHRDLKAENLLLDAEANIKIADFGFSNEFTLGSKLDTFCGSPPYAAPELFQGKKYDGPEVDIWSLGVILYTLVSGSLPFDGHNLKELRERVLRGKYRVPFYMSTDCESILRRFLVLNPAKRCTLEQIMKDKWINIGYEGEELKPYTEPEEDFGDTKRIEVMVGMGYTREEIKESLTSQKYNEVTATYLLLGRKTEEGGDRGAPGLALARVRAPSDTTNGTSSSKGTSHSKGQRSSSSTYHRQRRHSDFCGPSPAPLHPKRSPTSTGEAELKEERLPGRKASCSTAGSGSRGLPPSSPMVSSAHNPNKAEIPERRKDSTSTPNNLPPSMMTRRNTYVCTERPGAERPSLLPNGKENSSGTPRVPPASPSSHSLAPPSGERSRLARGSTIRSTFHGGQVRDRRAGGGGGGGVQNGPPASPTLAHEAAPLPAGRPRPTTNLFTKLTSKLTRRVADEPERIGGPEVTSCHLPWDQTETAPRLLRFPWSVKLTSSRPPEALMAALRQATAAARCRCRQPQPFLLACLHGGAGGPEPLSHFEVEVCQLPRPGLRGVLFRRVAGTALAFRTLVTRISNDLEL
The settings on record: 1 μM; Run 1, Run 2.

Chain of CAMK2g (Q13555 whole entry): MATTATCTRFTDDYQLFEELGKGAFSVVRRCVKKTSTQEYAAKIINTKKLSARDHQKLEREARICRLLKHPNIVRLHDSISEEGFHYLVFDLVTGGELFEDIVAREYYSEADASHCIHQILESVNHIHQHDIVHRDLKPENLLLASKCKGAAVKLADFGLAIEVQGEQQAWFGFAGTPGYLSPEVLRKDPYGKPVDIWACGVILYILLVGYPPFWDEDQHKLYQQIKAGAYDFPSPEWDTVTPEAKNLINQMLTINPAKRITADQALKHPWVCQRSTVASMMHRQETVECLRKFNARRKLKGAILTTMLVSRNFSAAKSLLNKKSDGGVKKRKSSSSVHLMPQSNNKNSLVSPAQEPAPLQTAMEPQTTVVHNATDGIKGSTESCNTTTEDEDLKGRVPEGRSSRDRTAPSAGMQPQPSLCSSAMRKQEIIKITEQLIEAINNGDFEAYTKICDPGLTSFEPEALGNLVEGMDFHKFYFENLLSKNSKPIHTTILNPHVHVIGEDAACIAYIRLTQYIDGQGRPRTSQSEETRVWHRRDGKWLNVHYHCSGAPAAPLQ
Chain of ERK5/MAPK7 (Q13164 whole entry): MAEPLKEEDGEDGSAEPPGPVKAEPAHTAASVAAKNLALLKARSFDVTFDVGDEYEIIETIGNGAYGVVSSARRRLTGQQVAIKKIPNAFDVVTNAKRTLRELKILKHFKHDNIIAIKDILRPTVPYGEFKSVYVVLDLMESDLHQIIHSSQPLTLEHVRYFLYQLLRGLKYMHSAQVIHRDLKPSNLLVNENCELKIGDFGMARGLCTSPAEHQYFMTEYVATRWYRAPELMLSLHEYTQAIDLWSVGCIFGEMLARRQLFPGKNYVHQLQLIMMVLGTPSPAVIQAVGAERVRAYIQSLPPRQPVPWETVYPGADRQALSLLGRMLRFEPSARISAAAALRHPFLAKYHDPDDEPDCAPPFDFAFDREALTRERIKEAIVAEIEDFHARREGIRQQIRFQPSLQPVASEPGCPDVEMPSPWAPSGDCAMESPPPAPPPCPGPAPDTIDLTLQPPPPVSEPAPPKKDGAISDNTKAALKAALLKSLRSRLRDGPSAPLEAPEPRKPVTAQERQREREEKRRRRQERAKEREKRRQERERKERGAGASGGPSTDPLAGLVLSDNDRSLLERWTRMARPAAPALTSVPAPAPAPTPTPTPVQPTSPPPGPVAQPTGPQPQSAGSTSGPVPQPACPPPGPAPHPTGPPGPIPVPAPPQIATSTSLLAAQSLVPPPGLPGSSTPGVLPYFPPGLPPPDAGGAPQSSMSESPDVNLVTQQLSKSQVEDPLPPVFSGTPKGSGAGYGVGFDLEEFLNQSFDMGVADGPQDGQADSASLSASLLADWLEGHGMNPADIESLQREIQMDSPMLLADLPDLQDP
Chain of RSK1 (Q15418 whole entry): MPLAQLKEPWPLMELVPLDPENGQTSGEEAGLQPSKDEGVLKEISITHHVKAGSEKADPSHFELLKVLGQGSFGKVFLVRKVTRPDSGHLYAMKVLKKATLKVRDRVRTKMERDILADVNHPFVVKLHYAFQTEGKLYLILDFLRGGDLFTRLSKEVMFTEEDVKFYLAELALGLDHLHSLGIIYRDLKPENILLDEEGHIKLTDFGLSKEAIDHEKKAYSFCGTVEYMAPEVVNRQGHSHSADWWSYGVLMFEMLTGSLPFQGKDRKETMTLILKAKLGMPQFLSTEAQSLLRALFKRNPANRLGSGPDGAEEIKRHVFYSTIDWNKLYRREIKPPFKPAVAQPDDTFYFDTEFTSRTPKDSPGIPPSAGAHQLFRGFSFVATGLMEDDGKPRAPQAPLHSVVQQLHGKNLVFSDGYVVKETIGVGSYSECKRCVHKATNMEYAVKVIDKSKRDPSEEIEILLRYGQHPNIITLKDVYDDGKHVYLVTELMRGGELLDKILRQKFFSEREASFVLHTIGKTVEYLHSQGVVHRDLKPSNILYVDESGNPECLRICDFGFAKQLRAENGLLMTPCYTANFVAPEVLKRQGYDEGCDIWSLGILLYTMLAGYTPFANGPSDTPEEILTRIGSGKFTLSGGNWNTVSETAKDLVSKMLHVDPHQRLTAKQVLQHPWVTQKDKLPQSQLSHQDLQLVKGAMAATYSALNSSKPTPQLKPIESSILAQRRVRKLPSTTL
Chain of PAK5 (Q9P286 whole entry): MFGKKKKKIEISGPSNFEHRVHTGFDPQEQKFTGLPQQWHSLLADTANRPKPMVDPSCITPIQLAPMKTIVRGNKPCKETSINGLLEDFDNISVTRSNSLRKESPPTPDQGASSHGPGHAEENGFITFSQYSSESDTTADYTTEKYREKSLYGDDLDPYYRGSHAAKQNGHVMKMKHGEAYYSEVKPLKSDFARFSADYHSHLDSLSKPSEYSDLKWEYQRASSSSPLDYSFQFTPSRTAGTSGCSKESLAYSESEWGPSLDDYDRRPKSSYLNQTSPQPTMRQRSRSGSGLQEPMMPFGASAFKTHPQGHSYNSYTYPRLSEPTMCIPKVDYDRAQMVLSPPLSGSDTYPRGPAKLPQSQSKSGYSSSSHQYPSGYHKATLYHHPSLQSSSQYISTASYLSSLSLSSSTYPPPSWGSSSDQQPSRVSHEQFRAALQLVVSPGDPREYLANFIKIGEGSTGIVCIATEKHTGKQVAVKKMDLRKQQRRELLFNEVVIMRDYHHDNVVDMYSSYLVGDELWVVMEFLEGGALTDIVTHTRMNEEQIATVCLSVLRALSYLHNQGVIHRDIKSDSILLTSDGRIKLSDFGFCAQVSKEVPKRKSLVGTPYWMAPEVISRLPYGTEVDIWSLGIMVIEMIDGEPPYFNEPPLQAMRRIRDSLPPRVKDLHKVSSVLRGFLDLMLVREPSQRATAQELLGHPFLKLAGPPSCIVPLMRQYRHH
Chain of MARK3 (P27448 whole entry): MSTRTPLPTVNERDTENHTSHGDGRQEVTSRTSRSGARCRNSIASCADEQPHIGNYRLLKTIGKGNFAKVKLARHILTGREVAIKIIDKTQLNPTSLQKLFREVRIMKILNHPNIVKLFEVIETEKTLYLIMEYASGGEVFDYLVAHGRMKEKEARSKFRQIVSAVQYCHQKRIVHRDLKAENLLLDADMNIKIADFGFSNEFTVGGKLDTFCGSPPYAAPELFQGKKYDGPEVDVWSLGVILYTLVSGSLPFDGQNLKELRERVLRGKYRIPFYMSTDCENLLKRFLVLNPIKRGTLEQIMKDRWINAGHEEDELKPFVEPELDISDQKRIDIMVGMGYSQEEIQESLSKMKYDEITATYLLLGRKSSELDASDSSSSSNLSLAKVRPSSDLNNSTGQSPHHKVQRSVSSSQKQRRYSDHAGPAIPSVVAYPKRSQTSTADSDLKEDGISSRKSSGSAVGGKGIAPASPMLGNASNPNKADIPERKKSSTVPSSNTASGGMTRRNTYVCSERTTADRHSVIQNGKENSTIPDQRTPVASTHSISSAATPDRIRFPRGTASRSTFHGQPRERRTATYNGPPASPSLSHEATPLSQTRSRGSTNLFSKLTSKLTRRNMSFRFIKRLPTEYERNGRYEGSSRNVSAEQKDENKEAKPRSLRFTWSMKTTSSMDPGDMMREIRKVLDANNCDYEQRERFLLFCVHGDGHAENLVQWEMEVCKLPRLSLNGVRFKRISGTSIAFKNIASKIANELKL
Chain of CDK3/cyclin E (Q00526 whole entry): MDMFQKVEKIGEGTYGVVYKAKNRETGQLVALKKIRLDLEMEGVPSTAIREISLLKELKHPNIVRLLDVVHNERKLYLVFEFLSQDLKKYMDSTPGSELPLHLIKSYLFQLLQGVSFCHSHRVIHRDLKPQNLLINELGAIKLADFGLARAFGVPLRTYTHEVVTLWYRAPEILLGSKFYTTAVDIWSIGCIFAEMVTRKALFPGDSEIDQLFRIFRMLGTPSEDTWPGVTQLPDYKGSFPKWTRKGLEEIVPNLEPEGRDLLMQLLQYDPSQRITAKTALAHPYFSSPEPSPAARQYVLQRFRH
Chain of CDK3/cyclin E (P24864 whole entry, further chain): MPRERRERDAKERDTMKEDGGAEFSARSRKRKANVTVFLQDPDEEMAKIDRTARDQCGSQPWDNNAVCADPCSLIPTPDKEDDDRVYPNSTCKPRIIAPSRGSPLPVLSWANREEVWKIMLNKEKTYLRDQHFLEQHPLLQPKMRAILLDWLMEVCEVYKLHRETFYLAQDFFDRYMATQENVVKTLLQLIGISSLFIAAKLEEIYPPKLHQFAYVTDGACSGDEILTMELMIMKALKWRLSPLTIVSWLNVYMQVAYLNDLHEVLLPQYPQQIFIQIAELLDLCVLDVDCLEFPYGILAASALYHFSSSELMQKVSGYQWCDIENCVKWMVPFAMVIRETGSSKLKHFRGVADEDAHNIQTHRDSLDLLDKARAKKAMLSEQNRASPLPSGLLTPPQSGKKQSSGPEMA

As to `COc1cc(-c2cncc(-c3ccc(N4CCN(C)CC4)cc3)c2C)cc(F)c1C(N)=O` [Compound 26a, 2-Fluoro-6-methoxy-4-(4-methyl-5-(4-(4-methylpiperazin-1-yl)phenyl)pyridin-3-yl)benzamide], the “% enzyme activity” value at CAMK2g came to 100.65%; at GRK3 it was 94.07%; at PAK5 it was 92.74%; on ALK5/TGFBR1 it was 82.28%; on RSK1 it was 97.99%; at MARK4, 82.62%. The remaining activity at 1 µM at MARK3 was determined as 83.5%; on ALK5/TGFBR1, 82.5%; at NEK3, 88.3%; at CDK3/cyclin E it was 82.7%; at STK39/STLK3, 89.1%; on ERK5/MAPK7 it was 96.5%.
On to `COc1cc(-c2cncc(-c3ccc(N4C[C@@H](C)N(C)[C@@H](C)C4)cc3)c2C)cc(F)c1C(N)=O` [Compound 26c, 2-Fluoro-6-methoxy-4-(4-methyl-5-(4-((3R,5S)-3,4,5-trimethylpiperazin-1-yl)phenyl)pyridin-3-yl)benzamide], for which the “% enzyme activity” value at CAMK2g amounted to 107.66%; at GRK3, 95.20%; at PAK5 it was 94.99%; at ALK5/TGFBR1, 96.60%; at RSK1, 101.00%; on MARK4, 95.76%. Moreover, the remaining activity at 1 µM on MARK3 is 95%; at ALK5/TGFBR1 it was 97.2%; on NEK3 it was 96.2%; at CDK3/cyclin E it was 78.7%; on STK39/STLK3, 95.7%; on ERK5/MAPK7 it was 101%.
